Assay results from patent US6855710B2, “Substituted indolines with an inhibitory effect on various kinases and complexes of CDKs” (Boehringer Ingelheim Pharma KG, priority 1998, dated 2005).

CNC(=O)c1cccc(N/C(=C2\C(=O)Nc3ccccc32)c2ccccc2)c1 [Example 21, (Z)-3-[1-(3-methylaminocarbonyl-phenylamino)-1-phenyl-methylidene]-2-indolinone]
melting point: 250 to 252 °C

O=C1Nc2ccc([N+](=O)[O-])cc2/C1=C(/Nc1ccc(CNCCO)cc1)c1ccccc1 [Example 239, (Z)-3-{1-[4-(2-hydroxy-ethylaminomethyl)-phenylamino]-1-phenyl-methylidene}-5-nitro-2-indolinone]
melting point: 196 to 198 °C

NC(=O)c1cccc(N/C(=C2\C(=O)Nc3ccccc32)c2ccccc2)c1 [Example 10, (Z)-3-{1-[3-(aminocarbonyl)phenylamino]-1-phenyl-methylidene}-2-indolinone]
melting point: 258 to 263 °C

COC(=O)C(Cc1ccc(N/C(=C2\C(=O)Nc3ccc([N+](=O)[O-])cc32)c2ccccc2)cc1)NC(=O)OC(C)(C)C (stereo not drawn) [Example 225, (Z)-3-{1-[4-(2-tert.butoxycarbonylamino-2-methoxycarbonyl-ethyl)-phenylamino]-1-phenyl-methylidene}-5-nitro-2-indolinone]
melting point: 139 °C

NCc1ccc(N/C(=C2\C(=O)Nc3ccccc32)c2ccccc2)cc1 [Example 55, (Z)-3-[1-(4-aminomethyl-phenylamino)-1-phenyl-methylidene]-2-indolinone]
melting point: 236 to 237 °C

O=C1Nc2ccc([N+](=O)[O-])cc2/C1=C(/Nc1ccc(CNC2CCCCC2)cc1)c1ccccc1 [Example 278, (Z)-3-{1-[4-(cyclohexylaminomethyl)-phenylamino]-1-phenyl-methylidene}-5-nitro-2-indolinone]
melting point: 245 °C

CCN(CC)CCc1ccc(N/C(=C2\C(=O)Nc3ccc([N+](=O)[O-])cc32)c2ccccc2)cc1 [Example 130, (Z)-3-{1-[4-(2-diethylamino-ethyl)-phenylamino]-1-phenyl-methylidene}-5-nitro-2-indolinone]
melting point: 167 to 168 °C

CN(c1ccc(N/C(=C2\C(=O)Nc3ccccc32)c2ccccc2)cc1)S(C)(=O)=O [Example 186, (Z)-3-{1-[4-(N-methyl-N-methylsulphonyl-amino)-phenylamino]-1-phenyl-methylidene}-2-indolinone]
melting point: 269 °C

CC(=O)Nc1cccc(N/C(=C2\C(=O)Nc3ccc([N+](=O)[O-])cc32)c2ccccc2)c1 [Example 89, (Z)-3-[1-(3-acetylamino-phenylamino)-1-phenyl-methylidene]-5-nitro-2-indolinone]
melting point: 318 to 320 °C (dec.)

NCc1ccc(/C(Nc2ccccc2)=C2/C(=O)Nc3ccc([N+](=O)[O-])cc32)cc1 [Example 154, (Z)-3-[1-phenylamino-1-(4-aminomethyl-phenyl)-methylidene]-5-nitro-2-indolinone]
melting point: 332 °C (dec.)

O=C1Nc2ccccc2/C1=C(/Nc1ccccc1C(=O)O)c1ccccc1 [Example 8, (Z)-3-[1-(2-carboxy-phenylamino)-1-phenyl-methylidene]-2-indolinone]
melting point: 227 to 230 °C

CS(=O)(=O)N(CC(N)=O)c1cccc(N/C(=C2\C(=O)Nc3ccccc32)c2ccccc2)c1 [Example 319, (Z)-3-{1-[3-(N-aminocarbonylmethyl-N-methylsulphonyl-amino)-phenylamino]-1-phenyl-methylidene}-2-indolinone]
melting point: 227 to 230 °C

CN(C(=O)CN1CCN(Cc2ccccc2)CC1)c1ccc(N/C(=C2\C(=O)Nc3ccccc32)c2ccccc2)cc1 [Example 53, (Z)-3-{1-[4-(N-(4-benzylpiperazinomethylcarbonyl)-N-methyl-amino)-phenylamino]-1-phenyl-methylidene}-2-indolinone]
melting point: 157 to 158 °C

COC(=O)c1ccccc1N/C(=C1\C(=O)Nc2ccccc21)c1ccccc1 [Example 7, (Z)-3-[1-(2-methoxycarbonyl-phenylamino)-1-phenyl-methylidene]-2-indolinone]
melting point: 241 to 244 °C

CC(=O)NCC(=O)Nc1ccc(N/C(=C2\C(=O)Nc3ccccc32)c2ccccc2)cc1 [Example 368, (Z)-3-{1-[4-(acetylaminomethylcarbonylamino)-phenylamino]-1-phenyl-methylidene}-2-indolinone]
melting point: 245 to 247 °C

COC(=O)CCNC(=O)c1ccc(/C(Nc2ccc(CN3CCCCC3)cc2)=C2/C(=O)Nc3ccc([N+](=O)[O-])cc32)cc1 [Example 447, (Z)-3-[1-(4-piperidinomethyl-phenylamino)-1-(4-(2-methoxycarbonyl-ethylaminocarbonyl)-phenyl)-methylidene]-5-nitro-2-indolinone]
melting point: 130 °C

CC(=O)c1ccc(N/C(=C2\C(=O)Nc3ccccc32)c2ccccc2)cc1 [Example 60, (Z)-3-[1-(4-acetylphenylamino)-1-phenyl-methylidene]-2-indolinone]
melting point: 207 to 209 °C

CCCNCc1ccc(N/C(=C2\C(=O)Nc3ccc([N+](=O)[O-])cc32)c2ccccc2)cc1 [Example 162, (Z)-3-[1-(4-propylaminomethyl-phenylamino)-1-phenyl-methylidene]-5-nitro-2-indolinone]
melting point: 201 to 202 °C

O=C1Nc2ccccc2/C1=C(/Nc1ccc(NS(=O)(=O)CCN2CCOCC2)cc1)c1ccccc1 [Example 381, (Z)-3-{1-[4-(2-morpholinoethylsulphonylamino)-phenylamino]-1-phenyl-methylidene}-2-indolinone]
melting point: 240 to 242 °C

CCOC(=O)CNC(=O)c1cccc(N/C(=C2\C(=O)Nc3ccccc32)c2ccccc2)c1 [Example 23, (Z)-3-[1-(3-ethoxycarbonylmethylaminocarbonyl-phenylamino)-1-phenyl-methylidene]-2-indolinone]
melting point: 233 to 235 °C

CN(C(=O)CN1C(=O)c2ccccc2C1=O)c1ccc(N/C(=C2\C(=O)Nc3ccccc32)c2ccccc2)cc1 [Example 365, (Z)-3-{1-[4-(N-phthalimidomethylcarbonyl-N-methyl-amino)-phenylamino]-1-phenyl-methylidene}-2-indolinone]
melting point: 278 to 280 °C

Cl.NCC(=O)NCc1ccc(N/C(=C2\C(=O)Nc3ccc([N+](=O)[O-])cc32)c2ccccc2)cc1
melting point: 225 to 228 °C

CCN(CC)S(=O)(=O)c1ccc(N/C(=C2\C(=O)Nc3ccccc32)c2ccccc2)cc1 [Example 398, (Z)-3-{1-[4-(diethylaminosulphonyl)-phenylamino]-1-phenyl-methylidene}-2-indolinone]
melting point: 252 to 254 °C

Cl.NCC(=O)NCc1ccc(N/C(=C2\C(=O)Nc3ccccc32)c2ccccc2)cc1
melting point: 190 to 195 °C

CN(C)CCS(=O)(=O)Nc1ccc(N/C(=C2\C(=O)Nc3ccccc32)c2ccccc2)cc1 [Example 379, (Z)-3-{1-[4-(2-dimethylamino-ethylsulphonylamino)-phenylamino]-1-phenyl-methylidene}-2-indolinone]
melting point: 214 to 216 °C

CS(=O)(=O)N(CC(N)=O)c1cccc(N/C(=C2\C(=O)Nc3ccccc32)c2ccc(CN)cc2)c1 [Example 416, (Z)-3-{1-[3-(N-aminocarbonylmethyl-N-methylsulphonyl-amino)-phenylamino]-1-(4-aminomethyl-phenyl)-methylidene}-2-indolinone]
melting point: 167 °C

CN(C)CCCc1ccc(N/C(=C2\C(=O)Nc3ccc([N+](=O)[O-])cc32)c2ccccc2)cc1 [Example 283, (Z)-3-{1-[4-(3-dimethylamino-propyl)-phenylamino]-1-phenyl-methylidene}-5-nitro-2-indolinone]
melting point: 269 °C (dec.)

CN(c1ccc(N/C(=C2\C(=O)Nc3ccc([N+](=O)[O-])cc32)c2ccccc2)cc1)S(C)(=O)=O [Example 197, (Z)-3-{1-[4-(N-methyl-N-methylsulphonyl-amino)-phenylamino]-1-phenyl-methylidene}-5-nitro-2-indolinone]
melting point: 306 to 308 °C

CN(C)C(=O)CNS(=O)(=O)c1ccc(N/C(=C2\C(=O)Nc3ccc([N+](=O)[O-])cc32)c2ccccc2)cc1 [Example 412, (Z)-3-{1-[4-(dimethylaminocarbonylmethylaminosulphonyl)-phenylamino]-1-phenyl-methylidene}-5-nitro-2-indolinone]
melting point: 281 to 283 °C

CCOC(=O)CCNCc1cccc(N/C(=C2\C(=O)Nc3ccc([N+](=O)[O-])cc32)c2ccccc2)c1 [Example 112, (Z)-3-{1-[3-(2-ethoxycarbonyl-ethylaminomethyl)-phenylamino]-1-phenyl-methylidene}-5-nitro-2-indolinone]
melting point: 142 to 145 °C

Cc1cccc(/C(Nc2ccc(CN(C)C)cc2)=C2/C(=O)Nc3ccc([N+](=O)[O-])cc32)c1 [Example 214, (Z)-3-[1-(4-dimethylaminomethyl-phenylamino)-1-(m-tolyl)-methylidene]-5-nitro-2-indolinone]
melting point: 210 °C

CNC(=O)CN(c1ccc(N/C(=C2\C(=O)Nc3ccccc32)c2ccccc2)cc1)S(C)(=O)=O [Example 192, (Z)-3-{1-[4-(N-methylaminocarbonylmethyl-N-methylsulphonyl-amino)-phenylamino]-1-phenyl-methylidene}-2-indolinone]
melting point: 268 to 270 °C

CN(C(=O)CN1CCNCC1)c1ccc(N/C(=C2\C(=O)Nc3ccc([N+](=O)[O-])cc32)c2ccccc2)cc1.Cl.Cl
melting point: 246 to 248 °C

O=C1Nc2ccc([N+](=O)[O-])cc2/C1=C(/Nc1ccc(CCN2CCCCCC2)cc1)c1ccccc1 [Example 265, (Z)-3-{1-[4-(2-hexamethyleneimino-ethyl)-phenylamino]-1-phenyl-methylidene}-5-nitro-2-indolinone]
melting point: 217 to 222 °C

CC(=O)NCCC(=O)N(C)c1ccc(N/C(=C2\C(=O)Nc3ccccc32)c2ccccc2)cc1 [Example 378, (Z)-3-{1-[4-(N-(2-acetylamino-ethylcarbonyl)-N-methyl-amino)-phenylamino]-1-phenyl-methylidene}-2-indolinone]
melting point: 187 to 189 °C

CCS(=O)(=O)N(CC(=O)N(C)CCN(C)C)c1ccc(N/C(=C2\C(=O)Nc3ccccc32)c2ccccc2)cc1 [Example 302, (Z)-3-{1-[4-(N—((N-(2-dimethylaminoethyl)-N-methyl-amino)-carbonylmethyl)-N-ethylsulphonyl-amino)-phenylamino]-1-phenyl-methylidene}-2-indolinone]
melting point: 170 to 172 °C
